Assay results taken from ChEMBL document CHEMBL1932988, “Synthesis, antimicrobial, anticancer evaluation and QSAR studies of 6-methyl-4-[1-(2-substituted-phenylamino-acetyl)-1H-indol-3-yl]-2-oxo/thioxo-1,2,3,4-tetrahydropyrimidine-5-carboxylic acid ethyl esters” (Eur J Med Chem, 2012).
≈ marks a conversion by molar mass, not a printed value.

What was measured:
[1] = test system: Staphylococcus aureus; test: Antibacterial activity against Staphylococcus aureus MTCC 2901 after 24 hrs followed by subculturing; format: functional
[2] = test system: Escherichia coli; test: Antibacterial activity against Escherichia coli MTCC 1652 after 24 hrs by tube dilution method; format: functional
[3] = test system: Aspergillus niger; test: Ratio of MIC to MFC for Aspergillus niger MTCC 8189; format: functional
[4] = test system: Staphylococcus aureus; test: Antibacterial activity against Staphylococcus aureus MTCC 2901 after 24 hrs by tube dilution method; format: functional
[5] = test system: Aspergillus niger; test: Antifungal activity against Aspergillus niger MTCC 8189 after 7 days by tube dilution method hrs followed by subculturing; format: functional
[6] = test system: MCF7; test: cells; details: Homo sapiens, MCF7, 72 h
Description: Cytotoxicity against human MCF7 cells after 72 hrs by MTT assay

[7] = test system: Escherichia coli; test: Ratio of MIC to MBC for Escherichia coli MTCC 1652; format: functional
[8] = test system: Bacillus subtilis; test: Antibacterial activity against Bacillus subtilis MTCC 2063 after 24 hrs by tube dilution method hrs followed by subculturing; format: functional
[9] = test system: Candida albicans; test: Ratio of MIC to MFC for Candida albicans MTCC 227; format: functional
[10] = test system: Bacillus subtilis; test: Ratio of MIC to MBC for Bacillus subtilis MTCC 2063; format: functional
[11] = test system: Aspergillus niger; test: Antifungal activity against Aspergillus niger MTCC 8189 after 7 days by tube dilution method; format: functional
[12] = test system: HCT-116; test: cells; details: Homo sapiens, HCT-116, 72 h
[13] = Partition coefficient, log P of the compound; format: physicochemical; details: octanol/water
[14] = test system: Candida albicans; test: Antifungal activity against Candida albicans MTCC 227 after 48 hrs by tube dilution method; format: functional
[15] = test system: Bacillus subtilis; test: Antibacterial activity against Bacillus subtilis MTCC 2063 after 24 hrs by tube dilution method; format: functional
[16] = test system: Staphylococcus aureus; test: Ratio of MIC to MBC for Staphylococcus aureus MTCC 2901; format: functional
[17] = test system: Candida albicans; test: Antifungal activity against Candida albicans MTCC 227 after 48 hrs by tube dilution method hrs followed by subculturing; format: functional
[18] = test system: Escherichia coli; test: Antibacterial activity against Escherichia coli MTCC 1652 after 24 hrs by tube dilution method hrs followed by subculturing; format: functional

| IC50 [6] | IC50 [12] | logP [13] | Structure (SMILES) | MBC [1] | -logMIC [2] | Ratio [3] | -logMIC [4] | MFC [5] | Ratio [7] | MBC [8] | Ratio [9] | Ratio [10] | -logMIC [11] | -logMIC [14] | -logMIC [15] | Ratio [16] | MFC [17] | MBC [18] |
| --- | --- | --- | --- | --- | --- | --- | --- | --- | --- | --- | --- | --- | --- | --- | --- | --- | --- | --- |
| > 1000 µg/mL | 130 µg/mL (≈ 263 µM) | 2.88 | CCOC(=O)C1=C(C)NC(=S)NC1c1cn(C(=O)CNc2cccc([N+](=O)[O-])c2)c2ccccc12 (stereo unspecified) | >0.1 uM/ml | 1.9 | 3 | 1.6 | >0.1 uM/ml | 3 | >0.1 uM/ml | 3 | 3 | 1.6 | 1.6 | 1.6 | 3 | >0.1 uM/ml | 0.1 uM/ml |
| 2.5 µg/mL (≈ 5.59 µM) | 300 µg/mL (≈ 670 µM) | 0.74 | CCOC(=O)C1=C(C)NC(=O)NC1c1cn(C(=O)CNc2ccccc2N)c2ccccc12 (stereo unspecified) | >0.11 uM/ml | 1.85 | 3 | 1.55 | >0.11 uM/ml | 3 | >0.11 uM/ml | 3 | 3 | 1.55 | 1.55 | 1.55 | 3 | >0.11 uM/ml | 0.11 uM/ml |
